Results on ten compounds are retold here after PubChem BioAssay (NCI).

What all share (test): growth of human tumour cells (NCI), 48 h
Experiment [1] relates to 786-0 renal.
In experiment [2] the test system is CAKI-1 renal.
Experiment [3] concerns COLO 205 colon.
In experiment [4] the test system is KM12 colon.
The test system of experiment [5] is M14 melanoma.
In experiment [6] the test system is NCI-H226 lung.
The subject of experiment [7] is OVCAR-8 ovarian.
In experiment [8] the test system is RXF 393 renal.
Experiment [9] deals with SF-295 CNS.
For experiment [10], the system named is SNB-19 CNS.

“And” between values parts separate entries of the source, which are not always exact repeats. Identical values can stand only once.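 The compound was tested at five concentrations on cells cultured in 96-well plates, with a 48-hour exposure period. Abbreviation: GI50, concentration required for 50% inhibition of growth. TGI denotes the concentration required for complete inhibition of growth.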

Consider `COc1ccc(Nc2c3ccccc3nc3occc23)cc1`, for which the GI50 in experiment [1] was 5830 nM; in experiment [2] it was 2930 nM; in experiment [3], 2000 nM; in [4], 274 nM; in experiment [5], 2140 nM; in [6], 31900 nM. Besides, the GI50 in experiment [7] was 5710 nM; in experiment [8] it was 1850 nM; in [9], 533 nM; in [10], 2870 nM. Moreover, the TGI is over 51.5 µM in experiment [1]; over 42 µM in [2]; 5430 nM in [4]; over 43.1 µM in experiment [5]; over 100 µM in experiment [6]; over 100 µM in experiment [7]. Moreover, the TGI in experiment [8] was 17.7 µM; in [9] it was 8.09 µM; in experiment [10], over 48.5 µM.
As for `COc1cccc2c1C(=O)c1c(O)c3c(c(O)c1C2=O)C[C@@](O)(C(C)=O)C[C@@H]3OC1OC(C)C(O)C(N)C1Br` (stereo partly specified), the GI50 in [1] was 17.8 nM; in experiment [3], 219 nM; in experiment [4], 79.7 nM; in experiment [5], 53.5 nM; in [6], 13.4 nM; in [7], 33.1 nM. For the same compound, the values for the GI50 in experiment [9] and in [10] were 15.9 nM and 25 nM, respectively. Besides, the TGI in experiment [1] was 0.62 µM and 0.168 µM; in [2], 0.257 µM; in experiment [3] it was 2.99 µM and 1.23 µM; in experiment [4] it was 426 nM and 453 nM; in experiment [5], 0.257 µM and 0.669 µM; in experiment [6], 0.0714 µM and 0.0818 µM. For the same compound, the TGI in experiment [7] was 0.207 µM and 0.646 µM; in experiment [8] it was 0.661 µM and 0.864 µM; in experiment [9], 0.419 µM and 0.194 µM.
Take `COc1cc2c(c(OC)c1OC)-c1ccc(OC)c(=O)cc1[C@@H](NC(=O)c1ccccc1)CC2`: the GI50 in experiment [1] is 11.4 nM; in experiment [2], 29 nM; in experiment [3] it was 3.99 nM; in experiment [7] it was 9.35 nM and 13.8 nM; in experiment [8] it was under 3 nM; in experiment [9], 6.23 nM. The GI50 in experiment [10] was < 3 nM and 15.7 nM. Further, the TGI in [1] is 30 µM and 47.5 µM; in [2], 30 µM and 61.2 µM; in experiment [3], 0.0153 µM and 0.0138 µM; in experiment [4], 1140 nM; in experiment [5], 8.46 µM; in experiment [6], 1.89 µM. For the same compound, the TGI is 30 µM and 13.8 µM in experiment [7]; 8.22 µM and 3.18 µM in experiment [8]; 30 µM and 46.3 µM in experiment [10].
For the compound `COc1cc(/C=C/c2cc(/C=C/c3ccc(O)c(OC)c3)n(C(=O)Nc3ccc(F)c(Cl)c3)n2)ccc1O`, the GI50 is 520 nM in [1]; 350 nM in experiment [2]; 1760 nM in [3]; 310 nM in [4]; 114 nM in experiment [5]; 491 nM in [6]. In addition, the GI50 in experiment [7] is 496 nM; in experiment [8] it was 249 nM; in experiment [9], 544 nM; in experiment [10], 514 nM. Also, the TGI in experiment [1] is 1.71 µM; in [2] it was 4.92 µM; in experiment [3], 3.25 µM; in [4], 1150 nM; in [5] it was 1.59 µM; in experiment [6], 2.3 µM. In addition, the TGI in experiment [7] stood at 3.09 µM; in experiment [8], 0.828 µM; in experiment [9] it was 2.6 µM; in [10], 2.1 µM.
With `Cc1nc(N)sc1C(=O)/C=C\c1ccc2c(c1)OCO2`, the TGI in experiment [1] is over 100 µM; in experiment [2], over 100 µM; in experiment [3], over 100 µM; in [4] it was over 100000 nM; in experiment [5], over 100 µM; in experiment [6] it was over 100 µM. Besides, the TGI in experiment [7], in [8], in experiment [9] and in [10] was over 100 µM in each case.
As to `CCOC(=O)C1=C(C)N(NC(=O)Nc2ccccc2)C(=O)C1=P(c1ccccc1)(c1ccccc1)c1ccccc1`, the TGI in experiment [1] was over 100 µM; in experiment [2], over 100 µM; in experiment [3], 56.4 µM; in experiment [5], over 100 µM; in [6] it was over 100 µM; in experiment [7], over 100 µM. Moreover, the values for the TGI in experiment [8], in experiment [9] and in [10] were 72.5 µM, over 100 µM and over 100 µM, respectively.
Regarding `Cc1cccc(NC(=O)C(=O)C(C(=O)c2ccc3ccccc3c2)C2OC(=O)c3ccccc32)c1C` (stereo unspecified), the TGI in [1] was 20.3 µM; in experiment [2] it was 39.3 µM; in experiment [3] it was 24.7 µM; in experiment [4] it was 51700 nM; in experiment [5], 33.4 µM; in experiment [6] it was 8.74 µM. Besides, the TGI is 71.8 µM in [7], 11.6 µM in experiment [8] and 25.4 µM in experiment [10].
Take `CC(=O)CSCc1ccccn1`: the TGI is over 100 µM in experiment [1]; over 100 µM in experiment [3]; over 100000 nM in experiment [4]; over 100 µM in [5]; 43.7 µM in experiment [6]; over 100 µM in experiment [7]. For the same compound, the TGI in experiment [8], in experiment [9] and in experiment [10] was over 100 µM each time.
For the compound `Nn1c(=O)n(Cc2ccccc2)n(-c2ccccc2)c1=O`, the TGI in experiment [1] was over 100 µM; in experiment [2], over 100 µM; in experiment [4] it was over 100000 nM; in experiment [5], over 100 µM; in experiment [6] it was over 100 µM; in [7], over 100 µM. In addition, the TGI in experiment [8], in experiment [9] and in [10] was over 100 µM each time.
Consider `C[C@@]12CC=C3c4nc(Nc5cccc(O)c5)sc4CC[C@]3(C)[C@H]1CC[C@]1(C)C(=O)CC[C@@H]21`, for which the GI50 in [1] is 1550 nM; in experiment [2] it was 1700 nM; in experiment [3], 2170 nM; in experiment [5], 2970 nM; in [6], 2860 nM; in experiment [7], 3550 nM. For the same compound, the GI50 is 666 nM in [8], 2490 nM in experiment [9] and 3880 nM in experiment [10]. The TGI in experiment [1] is 4.91 µM; in [2], 3.28 µM; in experiment [3], 4.38 µM; in experiment [5], over 100 µM; in experiment [6] it was 8.94 µM; in [7], 26 µM. Moreover, the TGI in experiment [8] came to 2.35 µM; in [9], 7.92 µM; in experiment [10] it was 55.7 µM.
